Laboratory results: PubChem BioAssay (NCI)
Several values for one entry are separate records, joined by “and”; a condition that tells them apart may be missing. Equal values may be shown once.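 48-hour exposure; five concentrations; linearly interpolated endpoints. GI50 = concentration required for 50% inhibition of growth. The concentration for full growth arrest is given as TGI.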

What was measured:
Experiment in all cases: NCI anticancer screen, dose series, 48 h
BT-549 breast = system: BT-549 breast
HCT-15 colon = system: HCT-15 colon
HL-60(TB) leukemia = system: HL-60(TB) leukemia
OVCAR-4 ovarian = system: OVCAR-4 ovarian
OVCAR-5 ovarian = system: OVCAR-5 ovarian
SK-MEL-2 melanoma = system: SK-MEL-2 melanoma
U251 CNS = system: U251 CNS
UO-31 renal = system: UO-31 renal

CC1=C([Se]CC(OC(=O)[C@@H](CO)NC(=O)OC(C)(C)C)C(=O)NC(C)(C)C)C(=O)c2ccccc2C1=O (stereo not given in full)
GI50 (BT-549 breast): 1.59 µM
TGI (BT-549 breast): 2.93 µM
GI50 (HCT-15 colon): 1.99 µM
TGI (HCT-15 colon): 3.97 µM
GI50 (HL-60(TB) leukemia): 0.87 µM
TGI (HL-60(TB) leukemia): 3.81 µM
GI50 (OVCAR-4 ovarian): 1.23 µM
TGI (OVCAR-4 ovarian): 2.49 µM
GI50 (OVCAR-5 ovarian): 2.1 µM
TGI (OVCAR-5 ovarian): 3.73 µM
GI50 (SK-MEL-2 melanoma): 2.2 µM
TGI (SK-MEL-2 melanoma): 4.57 µM
GI50 (U251 CNS): 0.986 µM
TGI (U251 CNS): 2.56 µM
GI50 (UO-31 renal): 1.45 µM
TGI (UO-31 renal): 2.94 µM

Cc1ccccc1N=Nc1c(O)[nH]c2ccccc12
TGI (BT-549 breast): > 100 µM
TGI (HCT-15 colon): > 100 µM
TGI (HL-60(TB) leukemia): > 100 µM
TGI (OVCAR-4 ovarian): > 100 µM
TGI (OVCAR-5 ovarian): > 100 µM
TGI (SK-MEL-2 melanoma): > 100 µM
TGI (U251 CNS): > 100 µM
TGI (UO-31 renal): > 100 µM

CC[C@H](C)n1cc(C)c2c(C(=O)NCc3c(C)cc(C)[nH]c3=O)cc(-c3ccc(N4CCNCC4)nc3)cc21
GI50 (BT-549 breast): 15.4 µM and 13.5 µM
TGI (BT-549 breast): 30.5 µM and 27.7 µM
GI50 (HCT-15 colon): 15.9 µM and 12.6 µM
TGI (HCT-15 colon): 30.7 µM and 26.5 µM
GI50 (HL-60(TB) leukemia): 24.6 µM and 14.6 µM
TGI (HL-60(TB) leukemia): 41.8 µM and 31.9 µM
GI50 (OVCAR-4 ovarian): 13.4 µM and 12.5 µM
TGI (OVCAR-4 ovarian): 28.9 µM and 26.4 µM
GI50 (OVCAR-5 ovarian): 16.1 µM and 15.3 µM
TGI (OVCAR-5 ovarian): 30.5 µM and 29.9 µM
GI50 (SK-MEL-2 melanoma): 17.5 µM and 15.4 µM
TGI (SK-MEL-2 melanoma): 32.9 µM and 29.9 µM
GI50 (U251 CNS): 10.9 µM and 10.2 µM
TGI (U251 CNS): 23.1 µM and 22.7 µM
GI50 (UO-31 renal): 15.3 µM and 12.9 µM
TGI (UO-31 renal): 29.6 µM and 27.3 µM

COc1cccc(C2C3=C(COC3=O)N(CCO)c3cc4c(cc32)OCCO4)c1 (stereo not given)
GI50 (BT-549 breast): 0.255 µM
TGI (BT-549 breast): > 10.9 µM
GI50 (HCT-15 colon): 0.21 µM
TGI (HCT-15 colon): > 50 µM
GI50 (HL-60(TB) leukemia): 0.111 µM
TGI (HL-60(TB) leukemia): 0.422 µM
GI50 (OVCAR-4 ovarian): 0.472 µM
TGI (OVCAR-4 ovarian): > 50 µM
GI50 (OVCAR-5 ovarian): 0.427 µM
TGI (OVCAR-5 ovarian): > 50 µM
GI50 (SK-MEL-2 melanoma): 0.0396 µM
TGI (SK-MEL-2 melanoma): 0.219 µM
GI50 (U251 CNS): 0.221 µM
TGI (U251 CNS): > 50 µM
GI50 (UO-31 renal): 0.268 µM
TGI (UO-31 renal): > 15.6 µM

N#Cc1c(-c2ccccc2)cc(-c2ccccc2)n(CCCCC(=O)NO)c1=O
GI50 (BT-549 breast): 3.65 µM
TGI (BT-549 breast): 16.4 µM
GI50 (HCT-15 colon): 0.57 µM
TGI (HCT-15 colon): 13.6 µM
GI50 (HL-60(TB) leukemia): 2.39 µM
TGI (HL-60(TB) leukemia): 6.84 µM
GI50 (OVCAR-4 ovarian): 2.74 µM
TGI (OVCAR-4 ovarian): 16.5 µM
GI50 (OVCAR-5 ovarian): 2.6 µM
TGI (OVCAR-5 ovarian): 10.9 µM
GI50 (SK-MEL-2 melanoma): 3.21 µM
TGI (SK-MEL-2 melanoma): 14.1 µM
GI50 (U251 CNS): 2.79 µM
TGI (U251 CNS): 11.1 µM
GI50 (UO-31 renal): 1.22 µM
TGI (UO-31 renal): 3.47 µM

COc1ccc(-c2cc(/C=C3\C(=O)Nc4ccc(OC)cc43)[nH]n2)cc1
GI50 (BT-549 breast): > 100 µM
TGI (BT-549 breast): > 100 µM
GI50 (HCT-15 colon): 0.687 µM
TGI (HCT-15 colon): > 100 µM
GI50 (HL-60(TB) leukemia): 0.821 µM
TGI (HL-60(TB) leukemia): > 100 µM
GI50 (OVCAR-4 ovarian): > 100 µM
TGI (OVCAR-4 ovarian): > 100 µM
GI50 (OVCAR-5 ovarian): > 100 µM
TGI (OVCAR-5 ovarian): > 100 µM
GI50 (SK-MEL-2 melanoma): 43.5 µM
TGI (SK-MEL-2 melanoma): > 100 µM
GI50 (U251 CNS): 31.5 µM
TGI (U251 CNS): > 100 µM
GI50 (UO-31 renal): > 100 µM
TGI (UO-31 renal): > 100 µM

C[C@H]1CC[C@@H]2[C@@H](C)[C@H]3[C@H](C[C@H]4[C@@H]5CC=C6C[C@@H](O)CC[C@]6(C)[C@H]5C[C@H](O)[C@]34C)N2C1
TGI (BT-549 breast): > 100 µM
TGI (HCT-15 colon): > 100 µM
TGI (OVCAR-4 ovarian): > 100 µM
TGI (OVCAR-5 ovarian): > 100 µM
TGI (SK-MEL-2 melanoma): > 100 µM
TGI (U251 CNS): > 100 µM
TGI (UO-31 renal): > 100 µM

O=c1[nH]c(SCc2c(Cl)c(Cl)c(Cl)c(Cl)c2Cl)nc(=S)[nH]1
TGI (BT-549 breast): > 100 µM
TGI (HCT-15 colon): > 100 µM
TGI (HL-60(TB) leukemia): 51.4 µM
TGI (OVCAR-4 ovarian): 54.8 µM
TGI (OVCAR-5 ovarian): > 100 µM
TGI (SK-MEL-2 melanoma): > 100 µM
TGI (U251 CNS): > 100 µM
TGI (UO-31 renal): > 58.9 µM

N#Cc1cccc(NC(=O)c2oc3ccccc3c2-c2cnn(-c3ccccc3)c2)c1
GI50 (BT-549 breast): 167 µM
TGI (BT-549 breast): > 500 µM
GI50 (HCT-15 colon): > 500 µM
TGI (HCT-15 colon): > 500 µM
GI50 (HL-60(TB) leukemia): > 500 µM
TGI (HL-60(TB) leukemia): > 500 µM
GI50 (OVCAR-4 ovarian): 193 µM
TGI (OVCAR-4 ovarian): > 500 µM
GI50 (OVCAR-5 ovarian): > 500 µM
TGI (OVCAR-5 ovarian): > 500 µM
GI50 (SK-MEL-2 melanoma): > 500 µM
TGI (SK-MEL-2 melanoma): > 500 µM
GI50 (U251 CNS): 256 µM
TGI (U251 CNS): > 500 µM
GI50 (UO-31 renal): 41.2 µM
TGI (UO-31 renal): > 500 µM

N#CN1CCC[C@H]1C(=O)N1CCc2c(-c3[nH]nc4ncccc34)cccc21
GI50 (BT-549 breast): < 0.01 µM
TGI (BT-549 breast): 0.0993 µM
GI50 (HCT-15 colon): < 0.01 µM
TGI (HCT-15 colon): 11.3 µM
GI50 (HL-60(TB) leukemia): < 0.01 µM
TGI (HL-60(TB) leukemia): < 0.01 µM
GI50 (OVCAR-4 ovarian): < 0.01 µM
TGI (OVCAR-4 ovarian): 13.3 µM
GI50 (OVCAR-5 ovarian): < 0.0156 µM
TGI (OVCAR-5 ovarian): 17.4 µM
GI50 (SK-MEL-2 melanoma): < 0.01 µM
TGI (SK-MEL-2 melanoma): 18.2 µM
GI50 (U251 CNS): 0.281 µM
TGI (U251 CNS): 2.91 µM
GI50 (UO-31 renal): 0.0431 µM
TGI (UO-31 renal): 5.11 µM

CC(=O)OCC1OC(OC2=C(CC=C(Cl)Cl)C(=O)c3ccccc3C2=O)C(OC(C)=O)C(OC(C)=O)C1OC(C)=O (stereo not given)
GI50 (BT-549 breast): 7.03 µM
TGI (BT-549 breast): 20.4 µM
GI50 (HCT-15 colon): 3.64 µM
TGI (HCT-15 colon): 21.3 µM
GI50 (OVCAR-5 ovarian): 11.8 µM
TGI (OVCAR-5 ovarian): 28.6 µM
GI50 (SK-MEL-2 melanoma): 3.33 µM
TGI (SK-MEL-2 melanoma): 9.25 µM
GI50 (U251 CNS): 3.54 µM
TGI (U251 CNS): 13.3 µM
GI50 (UO-31 renal): 1.44 µM
TGI (UO-31 renal): 3.37 µM

CCOC(=O)C1=C(C)NC2SC(=O)/C(=C\c3ccccc3)N2C1c1ccccc1 (stereo not given)
GI50 (BT-549 breast): > 100 µM
TGI (BT-549 breast): > 100 µM
GI50 (HCT-15 colon): > 100 µM
TGI (HCT-15 colon): > 100 µM
GI50 (HL-60(TB) leukemia): 25.6 µM
TGI (HL-60(TB) leukemia): > 100 µM
GI50 (OVCAR-4 ovarian): 78.1 µM
TGI (OVCAR-4 ovarian): > 100 µM
GI50 (OVCAR-5 ovarian): > 100 µM
TGI (OVCAR-5 ovarian): > 100 µM
GI50 (SK-MEL-2 melanoma): > 100 µM
TGI (SK-MEL-2 melanoma): > 100 µM
GI50 (U251 CNS): > 100 µM
TGI (U251 CNS): > 100 µM
GI50 (UO-31 renal): > 100 µM
TGI (UO-31 renal): > 100 µM

C=C1C(=O)O[C@@H]2C[C@@H]1CC[C@@]1(C)O[C@@H]1CC[C@@]1(C)O[C@@H]1CC[C@@]2(C)O
GI50 (BT-549 breast): 22.1 µM
TGI (BT-549 breast): 59.6 µM
GI50 (HCT-15 colon): 24 µM
TGI (HCT-15 colon): 70.1 µM
GI50 (HL-60(TB) leukemia): 10.3 µM
TGI (HL-60(TB) leukemia): 32.8 µM
GI50 (OVCAR-4 ovarian): 12.3 µM
TGI (OVCAR-4 ovarian): 34.3 µM
GI50 (OVCAR-5 ovarian): 20.5 µM
TGI (OVCAR-5 ovarian): 56.5 µM
GI50 (SK-MEL-2 melanoma): 23 µM
TGI (SK-MEL-2 melanoma): 75.2 µM
GI50 (U251 CNS): 16.1 µM
TGI (U251 CNS): 36.1 µM
GI50 (UO-31 renal): 15.3 µM
TGI (UO-31 renal): > 100 µM

CCOC(=O)C1=C(C)NC(=O)NC1c1coc2cc(C)cc(C)c2c1=O (stereo not given)
TGI (BT-549 breast): > 100 µM
TGI (HCT-15 colon): > 100 µM
TGI (HL-60(TB) leukemia): > 100 µM
TGI (OVCAR-4 ovarian): > 100 µM
TGI (OVCAR-5 ovarian): > 100 µM
TGI (SK-MEL-2 melanoma): 99.5 µM
TGI (U251 CNS): > 100 µM
TGI (UO-31 renal): > 100 µM

COc1ccc2c(=O)c3cc([N+](=O)[O-])ccc3n(C)c2c1
TGI (BT-549 breast): > 100 µM
TGI (HCT-15 colon): > 100 µM
TGI (HL-60(TB) leukemia): > 100 µM
TGI (OVCAR-4 ovarian): > 100 µM
TGI (OVCAR-5 ovarian): > 100 µM
TGI (SK-MEL-2 melanoma): > 100 µM
TGI (U251 CNS): > 100 µM
TGI (UO-31 renal): > 100 µM

CCc1c(Cl)nc(Cl)nc1Cl
TGI (BT-549 breast): 0.133 µM
TGI (HCT-15 colon): 0.601 µM
TGI (HL-60(TB) leukemia): 0.674 µM
TGI (OVCAR-5 ovarian): 1.3 µM
TGI (U251 CNS): 0.92 µM
TGI (UO-31 renal): 4.85 µM

CNc1ccc(-c2cc(=O)oc3ccc(Cl)cc23)cc1
GI50 (BT-549 breast): 0.102 µM and 0.044 µM
TGI (BT-549 breast): 3.02 µM
GI50 (HCT-15 colon): 0.0421 µM
GI50 (HL-60(TB) leukemia): 0.0431 µM and 0.0317 µM
TGI (HL-60(TB) leukemia): 2.05 µM and 1.14 µM
TGI (OVCAR-4 ovarian): > 100 µM
GI50 (OVCAR-5 ovarian): 0.795 µM and 0.457 µM
TGI (OVCAR-5 ovarian): > 100 µM
GI50 (SK-MEL-2 melanoma): 0.215 µM and 0.0294 µM
TGI (SK-MEL-2 melanoma): 0.0932 µM
GI50 (U251 CNS): 0.175 µM and 0.0472 µM
TGI (U251 CNS): > 100 µM
GI50 (UO-31 renal): 0.417 µM and 0.501 µM
TGI (UO-31 renal): > 100 µM
